Results as given in ChEMBL document CHEMBL1128889, “Preparation and biological evaluation of -Trifluoromethyl-,-unsaturated carbonyl compounds” (Bioorg Med Chem Lett, 1995).
≈ marks a conversion by molar mass, not a printed value.

Experiment: In vitro viable cell inhibitory towards interleukin-2 antiproducing effect was determined.
Format: functional

With CC1(C)OC[C@H]([C@H](OC(=O)/C=C/C(F)(F)F)[C@@H](OC(=O)/C=C/C(F)(F)F)[C@H]2COC(C)(C)O2)O1 the IC50 was 0.8 µg/mL (≈ 1.58 µM).

CC1(C)COC(=O)[C@@H]1OC(=O)/C=C/C(F)(F)F gave an IC50 of 3.71 µg/mL (≈ 14.7 µM).
